# Laboratory results published in publication PMC5578599, “Programmed cell death in Acanthamoeba castellanii Neff induced by several molecules present in olive leaf extracts” (PLoS ONE, 2017).
# “Also recorded” adds a separate entry of the source. Where two headings read alike, the source gives them in different places.
# What was measured:
# [1] = test system: Acanthamoeba castellanii Neff (ATCC 30010); assay: Alamar Blue assay against the trophozoite stage, A. castellanii Neff; assay type: cell-based; conditions: IC50/96 h; for IC50: Acanthamoeba castellanii, ATCC30010, trophozoites; for IC50 A. Neff: trophozoites
# A. Neff = assay: JC-1 mitochondrial membrane potential; assay type: cell-based, Acanthamoeba castellanii; conditions: IC90, 24 hours
# Experimental: The ΔΨm was measured using JC-1 Mitochondrial Membrane Potential Assay Kit (Cayman Chemical, Vitro, Madrid, Spain). This lipophilic cationic probe accumulates in the mitochondrial matrix according to the membrane potential. In healthy cells with a high ΔΨm, JC-1 spontaneously forms complexes known as J-aggregates, showing intense red fluorescence (emission at 595 nm). […] In brief, amoebae, after 24 hours of incubation with different concentrations of the tested compounds, were harvested and washed with buffer. The cells were then incubated at 26°C for 30 minutes with JC-1 dye. Cells were then analyzed by fluorescence measurement in black plates through spectrofluorometer using 490 nm as excitation wavelength. Data presented here are representative of three experiments. The ratio of the reading at 595 nm to the reading at 535 nm was considered as the relative ΔΨm value.
# A. Neff membrane = assay: SYTOX Green plasma membrane permeability; assay type: cell-based, Acanthamoeba castellanii; conditions: IC90, SYTOX Green, relative to Triton X-100 positive control
# Experimental: The SYTOX® Green assay was performed to detect membrane permeability alterations on the parasites. Briefly, 10^5 amoebae/ml were incubated with the SYTOX® Green at a final concentration of 1 μM (Molecular Probes®) for 30 min in the dark at 26°C. Subsequently, parasites were disposed to black plates and the tested compounds were added at the IC90. The increase in fluorescence due to binding of the fluorescent marker to the amoebic DNA was measured using an EnSpire® Multimode Plate Reader (Perkin Elmer, Madrid, Spain) with excitation wavelength of 504 nm and emission wavelength at 523 nm, and expressed as percentage relative to full permeabilized cells achieved by the addition of 0.1% Triton X-100 [17–19].
# [2] = test system: Acanthamoeba castellanii Neff (ATCC 30010); assay: Alamar Blue assay against the trophozoite stage, A. castellanii Neff; assay type: cell-based; conditions: for IC90: ATCC30010, trophozoites, Alamar Blue
# Experimental: (§1) The strains used in this study included a type strain: Acanthamoeba castellanii Neff (ATCC 30010), and two clinical isolates, CLC-16, genotype T3; and CLC-51, genotype T1, which were isolated in a previous study. The strains were axenically grown in PYG medium (0.75% (w/v) proteose peptone, 0.75% (w/v) yeast extract and 1.5% (w/v) glucose) containing 40 μg/ml of gentamicin (Biochrom AG, Cultek, Granollers, Barcelona, Spain).
# (§2) The anti-Acanthamoeba activities of the tested molecules were determined using the Alamar Blue® assay as previously described. Briefly, Acanthamoeba strains were seeded in duplicate on a 96-well microtiter plates with 50μl from a stock solution of 10^4 cells/ml. Amoebae were left to adhere for 15 min process which was checked using a Leika DMIL inverted microscope (Leika, Wetzlar, Germany). After that, 50 μl of serial dilutions of the molecules to be evaluated were added to the wells (In all tests, 1% DMSO was used to dissolve the highest dose of the compounds without inducing any effects on the parasites). Finally the Alamar Blue Reagent® (Life Technologies, Madrid, Spain) was placed into each well at an amount equal to 10% of the final volume. Test plates containing Alamar Blue were then incubated for 120 h at 28°C with a slight agitation.
# (§3) Subsequently the plates were analyzed, during an interval of time between 72 and 144 h, on an EnSpire® Multimode Plate Reader (Perkin Elmer, Madrid, Spain) using a test wavelength of 570 nm and a reference wavelength of 630 nm. Percentages of growth inhibition, 50% and 90% inhibitory concentrations (IC50 and IC90) were calculated by linear regression analysis with 95% confidence limits. All experiments were performed three times, and the mean values were also calculated.
# CLC-16, genotype T3 = assay: Alamar Blue assay against the trophozoite stage, clinical isolate CLC-16; assay type: cell-based; conditions: Acanthamoeba, trophozoites, IC50/96 h
# Experimental: as §1, §2, §3
# macrophages J774.A1 = assay: LDH release cytotoxicity test; assay type: cell-based, murine; conditions: for Cytotoxicity level at the IC50 against Acanthamoeba / Cytotoxicity level at the IC90 against Acanthamoeba: J774A.1 murine macrophages, 24 hours, LDH release; for Cytotoxicity level at the IC50 against Acanthamoeba: compound at its IC50; for Cytotoxicity level at the IC90 against Acanthamoeba: compound at its IC90
# Experimental: A commercial kit was used for the evaluation of the induced cytotoxic effects of tested compounds based on the measurement of lactate dehydrogenase (LDH) quantity released to the media (LDH Cytotoxicity Detection Kit, Roche Applied Science, Madrid, Spain), following the manufacturer's instructions. Briefly, the macrophages J774.A1 (ATCC # TIB-67) were incubated with different concentrations of the tested compounds for 24 hours in duplicate. After incubation, supernatants were obtained and LDH levels were determined following manufacturer′s instructions. To determine the cytotoxicity percentages, the average absorbance values of the duplicates were calculated and compared with negative and positive controls. Cytotoxic levels were determined as previously described.
# CLC-51, genotype T1 = assay: Alamar Blue assay against the trophozoite stage, clinical isolate CLC-51; assay type: cell-based; conditions: Acanthamoeba, trophozoites, IC50/96 h
# Experimental: as §1, §2, §3
# [3] = test system: Acanthamoeba castellanii Neff; assay: Annexin-V/PI image-based cytometry for apoptosis; assay type: cell-based; conditions: treated with IC90, 24 h
# Experimental: Annexin-V/propidium iodide (PI) double staining assay was performed using the Tali® Apoptosis Kit—Annexin V Alexa Fluor® 488 & Propidium Iodide according to the manufacturer's instructions (Life Technologies, Madrid, Spain). […] After that, cells were centrifuged and resuspended in ABB containing 1 μl of PI and incubated for 3 min at room temperature. Finally, 25 μl of the stained cells were loaded into a Tali® Cellular Analysis Slide and were analysed in the Tali® Image-Based Cytometer. Data were collected using the Tali® data acquisition and analysis software (Life Technologies, Madrid, Spain).
smiles,measurement,setting,value
O=c1c(O)c(-c2ccc(O)c(O)c2)oc2cc(O)cc(O)c12 [Quercetin hydrate],IC50,[1],> 100 µg/mL
COc1cc(C(=O)O)cc(OC)c1O [Syringic acid],Decrease of the membrane potential (ΔΨm),A. Neff,68%
same,Plasma membrane permeabilization,A. Neff membrane,induced the higher permeabilization; also recorded: caused plasma membrane permeability
same,IC90,[2],119 µg/mL
same,IC50,"CLC-16, genotype T3",51.5 ± 2.41 µg/mL
same,IC50,[1],22.9 ± 2.14 µg/mL
same,Cytotoxicity (in words),"macrophages J774.A1; J774A.1 macrophages, Fig 2",lowest toxic levels
same,Cytotoxicity level at the IC50 against Acanthamoeba,macrophages J774.A1,low cytotoxicity (Values between 10 and 25% correspond to low cytotoxicity)
same,Cytotoxicity level at the IC90 against Acanthamoeba,macrophages J774.A1,low cytotoxicity (Values between 10 and 25% correspond to low cytotoxicity)
same,IC50,"CLC-51, genotype T1",63.07 ± 0.56 µg/mL
O=C(O)/C=C/c1ccc(O)c(O)c1 [Caffeic acid],IC50,[1],> 100 µg/mL
OCCc1ccc(O)cc1 [Tyrosol],IC50,[1],63.77 ± 0.34 µg/mL
O=C(O)/C=C/c1ccc(O)cc1 [p-coumaric acid],IC50,[1],72.19 ± 0.19 µg/mL
O=c1cc(-c2ccc(O)cc2)oc2cc(O)cc(O)c12 [Apigenine],IC50,"CLC-16, genotype T3",57 ± 2.68 µg/mL
same,IC50,[1],6.59 ± 0.39 µg/mL
same,Cytotoxicity level at the IC50 against Acanthamoeba,macrophages J774.A1,high cytotoxicity (abve 40% correspond to high cytotoxicity)
same,Cytotoxicity level at the IC90 against Acanthamoeba,macrophages J774.A1,high cytotoxicity (abve 40% correspond to high cytotoxicity)
same,IC50,"CLC-51, genotype T1",20.2 ± 0.73 µg/mL
CC1(C)CC[C@]2(C(=O)O)CC[C@]3(C)C(=CC[C@@H]4[C@@]5(C)CC[C@H](O)C(C)(C)[C@@H]5CC[C@]43C)[C@@H]2C1 [Oleanolic acid],IC50,[1],43.7 ± 3.34 µg/mL
C[C@@H]1O[C@@H](O[C@@H]2[C@@H](O)[C@H](OCCc3ccc(O)c(O)c3)O[C@H](CO)[C@H]2OC(=O)/C=C/c2ccc(O)c(O)c2)[C@H](O)[C@H](O)[C@H]1O [Verbascoside],IC50,[1],> 100 µg/mL
O=C(O)c1ccc(O)c(O)c1 [Protochatechuic acid],IC50 A. Neff,[1],36.05 ± 1.31 µg/mL
C/C=C1/[C@H](O[C@@H]2O[C@H](CO)[C@@H](O)[C@H](O)[C@H]2O)OC=C(C(=O)OC)[C@H]1CC(=O)OCCc1ccc(O)c(O)c1 [Oleuropein],IC50,[1],57.5 ± 4.32 µg/mL
O.Oc1cc(O)c2c(c1)O[C@H](c1ccc(O)c(O)c1)[C@@H](O)C2 [Catechin hydrate],IC50 A. Neff,[1],>100 µg/mL
C[C@H]1[C@H](C)CC[C@]2(C(=O)O)CC[C@]3(C)C(=CC[C@@H]4[C@@]5(C)CC[C@H](O)C(C)(C)[C@@H]5CC[C@]43C)[C@H]12 [Ursolic acid],Decrease of the membrane potential (ΔΨm),A. Neff,80%
same,IC90,[2],119 µg/mL
same,IC50,"CLC-16, genotype T3",55 ± 1.21 µg/mL
same,Percentage of apoptotic cells,[3],26%
same,IC50 A. Neff,[1],23.94 ± 1.14 µg/mL
same,IC50,"CLC-51, genotype T1",28 ± 2.26 µg/mL
O=c1cc(-c2ccc(O)c(O)c2)oc2cc(O)cc(O)c12 [Luteolin],IC50,"CLC-16, genotype T3",83.1 ± 0.89 µg/mL
same,IC50,[1],28 ± 1.73 µg/mL
same,IC50,"CLC-51, genotype T1",26.6 ± 1.75 µg/mL
CC1(C)CC[C@]2(C(=O)O)CC[C@]3(C)C(=CC[C@@H]4[C@@]5(C)C[C@@H](O)[C@H](O)C(C)(C)[C@@H]5CC[C@]43C)[C@@H]2C1 [Maslinic acid],IC50,"[2]; ATCC30010, read-out: IC50 A. Neff",30.9 ± 1.33 µg/mL
COc1cc(C=O)ccc1O [Vanillin],Decrease of the membrane potential (ΔΨm),A. Neff,36%
same,Plasma membrane permeabilization,A. Neff membrane,caused plasma membrane permeability
same,IC90,[2],123 µg/mL
same,IC50,"CLC-16, genotype T3",58.1 ± 3.77 µg/mL
same,IC50,[1],25.6 ± 2.1 µg/mL
same,Cytotoxicity level at the IC50 against Acanthamoeba,macrophages J774.A1,low cytotoxicity (Values between 10 and 25% correspond to low cytotoxicity)
same,IC50,"CLC-51, genotype T1",37.2 ± 2.85 µg/mL
OCCc1ccc(O)c(O)c1 [Hydroxytyrosol],IC50,[1],> 100 µg/mL
O=C(/C=C/c1ccc(O)c(O)c1)O[C@@H]1C[C@](O)(C(=O)O)C[C@@H](O)[C@H]1O [Chlorogenic acid],IC50,[1],> 100 µg/mL
O=C(O)/C=C/c1cccc(O)c1 [m-coumaric acid],IC50 A. Neff,[1],65.75 ± 3.97 µg/mL
O=C(O)c1cc(O)c(O)c(O)c1 [Gallic acid],IC50,[1],> 100 µg/mL
C[C@@H]1O[C@@H](OC[C@H]2O[C@@H](Oc3c(-c4ccc(O)c(O)c4)oc4cc(O)cc(O)c4c3=O)[C@H](O)[C@@H](O)[C@@H]2O)[C@H](O)[C@H](O)[C@H]1O [Rutin],IC50,[1],61.4 ± 5.44 µg/mL
O=c1oc2c(O)c(O)cc3c(=O)oc4c(O)c(O)cc1c4c23 [Ellagic acid],IC50,[1],67.4 ± 3.59 µg/mL
O=c1cc(-c2ccc(O)c(O)c2)oc2cc(O[C@@H]3O[C@H](CO)[C@@H](O)[C@H](O)[C@H]3O)cc(O)c12 [Luteolin 7-o-glucoside],IC50 A. Neff,[1],61.98 ± 3.93 µg/mL
COc1cc(/C=C/C(=O)O)ccc1O [Ferulic acid],IC50 A. Neff,[1],62.03 ± 1.78 µg/mL
COc1cc(C(=O)O)ccc1O [Vanillic acid],Decrease of the membrane potential (ΔΨm),A. Neff,68%
same,Plasma membrane permeabilization,A. Neff membrane,induced the higher permeabilization; also recorded: caused plasma membrane permeability
same,IC90,[2],133 µg/mL
same,IC50,"CLC-16, genotype T3",65.4 ± 0.89 µg/mL
same,IC50,[1],34.7 ± 1.32 µg/mL
same,Cytotoxicity level at the IC50 against Acanthamoeba,macrophages J774.A1,low cytotoxicity (Values between 10 and 25% correspond to low cytotoxicity)
same,IC50,"CLC-51, genotype T1",61.7 ± 4.43 µg/mL
